Assay results reported in publication PMC12542965, “Remolding laccase for whole-cell and in vivo modulation of dopamine signal” (Science Advances, 2025).

Legend:
[1] = target: T1, RuCu-SLAC (remolded laccase) (Streptomyces coelicolor, UniProt Q9XAL8); assay: UV-vis quinone formation at […] nm; type: biochemical; details: 50 mM sodium phosphate, O2 as co-substrate, pH 6.0 to 8.0 (pH series); Ru-Cu artificial metal centre; T1 Cu quantified at 590 nm
T1 construct: gene SCO6712; artificial metalloenzyme: same apo-SLAC polypeptide (E. coli BL21(DE3), N-terminal GST tag cut off by PPase) loaded with Ru3+ then Cu2+; homodimer with one Ru and three Cu; Ru-Cu binuclear centre replaces the Cu trinuclear cluster
T1 sequence (Q9XAL8 34-343): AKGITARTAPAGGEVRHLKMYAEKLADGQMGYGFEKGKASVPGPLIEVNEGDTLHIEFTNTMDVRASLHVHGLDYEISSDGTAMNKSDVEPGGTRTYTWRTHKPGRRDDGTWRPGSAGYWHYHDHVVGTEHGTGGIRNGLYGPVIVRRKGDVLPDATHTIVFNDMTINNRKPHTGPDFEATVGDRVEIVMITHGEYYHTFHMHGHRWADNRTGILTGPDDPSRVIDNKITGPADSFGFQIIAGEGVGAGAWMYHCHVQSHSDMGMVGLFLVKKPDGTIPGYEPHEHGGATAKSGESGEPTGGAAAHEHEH

[2] = target: T2, native SLAC (bacterial small laccase) (Streptomyces coelicolor, UniProt Q9XAL8); assay: UV-vis quinone formation at […] nm; type: biochemical; details: 50 mM sodium phosphate, O2 as co-substrate, pH 6.0 to 8.0 (pH series); native Cu-reconstituted enzyme; T1 Cu quantified at 590 nm
T2 construct: gene SCO6712; reconstituted with CuCl2 (T1 Cu and T2/T3 Cu trinuclear cluster); trimer
T2 sequence (Q9XAL8 34-343): T1 sequence (Q9XAL8 34-343)

SMILES: NCCc1ccc(O)c(O)c1 [dopamine]
- Michaelis-Menten constants [1]: Michaelis-Menten constants and Kcat (turnover number) of both enzymes with a dopamine substrate
- Michaelis-Menten constants [2]: Michaelis-Menten constants and Kcat (turnover number) of both enzymes with a dopamine substrate
